Patent publication US7375136B2, “pH-dependent NMDA receptor antagonists” (Emory University, priority 2001, dated 2008)
pIC50: −log10 of the molar value. Where two headings read alike, the source gives them in different places.

Legend:
Male Sprague-Dawley rats = experiment: Maximal electroshock seizures, duration of tonic hindlimb extension (THE); type: in vivo; conditions: for Anticonvulsive effects: rat maximal electroshock, summary in words; for THE in drug (% control): rat, mean ± sem
Description: Methods: Male Sprague-Dawley rats weighing less than 150 gm were used for these experiments. Maximal electroshock seizures were produced by delivering 200 ms biphasic square-wave pulses of 200 mA at 60 Hz via corneal electrodes, using a Wahlquist Constant Current Source (Salt Lake City, Utah). A drop of 0.9% lidocaine in saline was applied to each cornea 30 s before stimulus delivery to minimize pain. Automatic timers recorded the durations of tonic hindlimb flexion, tonic hindlimb extension (THE), clonus and flaccidity that sequentially followed stimulus delivery. The duration of THE was used as an index of seizure severity. Animals were stimulated on three consecutive days, referred to as “control”, “test”, and “recovery”. […] On “test” day, each animal received either vehicle or drug at varying intervals prior to stimulation. Reversibility of drug effect on THE was ascertained by response to stimulation administered one day after the “test” session. The values shown in the table are the mean (±sem) THE duration in the test condition, as a percentage of the mean of control and recovery conditions. Four rats were used for each time point.
P<0.001 for difference from vehicle by one-way ANOVA with Dunnett's post hoc test. For all other conditions P>0.05.

NR1-1a/NR2B receptors = NR1-1a/NR2B receptors (Homo sapiens, UniProt Q05586+Q13224); experiment: Two electrode voltage clamp of Xenopus oocytes expressing NR1-1a and NR2B NMDA receptor subunits; inhibition of glutamate/glycine current at pH 6.9 and 7.6; type: cell-based; conditions: for Fold increase in potency between pH 7.6 and 6.9: IC50 at pH 7.6/IC50 at pH 6.9
Chain of NR1-1a/NR2B receptors (Q13224 27-1484, other chains not shown): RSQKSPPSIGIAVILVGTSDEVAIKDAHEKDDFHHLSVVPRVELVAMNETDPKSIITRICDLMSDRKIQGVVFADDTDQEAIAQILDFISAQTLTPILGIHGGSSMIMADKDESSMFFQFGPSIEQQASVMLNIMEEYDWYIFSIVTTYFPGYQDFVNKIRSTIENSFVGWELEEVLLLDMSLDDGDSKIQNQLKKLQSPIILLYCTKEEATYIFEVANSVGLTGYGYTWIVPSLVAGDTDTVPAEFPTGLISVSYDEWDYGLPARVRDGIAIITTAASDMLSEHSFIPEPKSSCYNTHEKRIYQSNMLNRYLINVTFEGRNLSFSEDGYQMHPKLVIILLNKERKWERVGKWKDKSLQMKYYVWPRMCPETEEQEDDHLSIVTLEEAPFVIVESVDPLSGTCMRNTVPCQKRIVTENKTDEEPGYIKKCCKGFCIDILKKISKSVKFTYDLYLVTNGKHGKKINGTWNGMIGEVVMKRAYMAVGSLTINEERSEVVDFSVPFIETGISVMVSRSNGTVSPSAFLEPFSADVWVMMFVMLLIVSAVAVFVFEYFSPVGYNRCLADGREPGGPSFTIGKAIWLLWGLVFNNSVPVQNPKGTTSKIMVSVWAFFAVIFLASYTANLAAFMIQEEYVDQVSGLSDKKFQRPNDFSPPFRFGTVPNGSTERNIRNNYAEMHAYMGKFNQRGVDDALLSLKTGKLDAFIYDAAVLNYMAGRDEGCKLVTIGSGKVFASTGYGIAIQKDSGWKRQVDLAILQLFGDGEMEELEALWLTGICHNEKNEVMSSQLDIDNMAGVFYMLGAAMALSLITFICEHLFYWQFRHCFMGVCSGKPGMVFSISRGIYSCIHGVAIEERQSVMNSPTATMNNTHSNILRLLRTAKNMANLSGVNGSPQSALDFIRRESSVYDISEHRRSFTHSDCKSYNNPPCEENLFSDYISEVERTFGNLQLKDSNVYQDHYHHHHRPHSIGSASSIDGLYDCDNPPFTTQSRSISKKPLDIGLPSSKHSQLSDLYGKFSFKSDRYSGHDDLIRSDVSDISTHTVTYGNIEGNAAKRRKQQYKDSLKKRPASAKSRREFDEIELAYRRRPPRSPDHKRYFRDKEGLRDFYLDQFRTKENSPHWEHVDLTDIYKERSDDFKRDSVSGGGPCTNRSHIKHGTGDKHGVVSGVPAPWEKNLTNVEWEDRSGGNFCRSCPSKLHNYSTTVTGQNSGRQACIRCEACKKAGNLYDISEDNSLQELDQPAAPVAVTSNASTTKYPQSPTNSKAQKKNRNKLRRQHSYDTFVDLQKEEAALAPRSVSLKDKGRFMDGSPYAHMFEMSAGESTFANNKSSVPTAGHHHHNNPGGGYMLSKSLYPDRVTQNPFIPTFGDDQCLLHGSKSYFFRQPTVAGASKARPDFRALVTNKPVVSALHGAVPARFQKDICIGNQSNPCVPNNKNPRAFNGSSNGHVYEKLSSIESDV
Procedure: Current recordings were obtained using two electrode voltage clamp of Xenopus oocytes injected with cRNA encoding the NR1-1a and NR2B NMDA receptor subunits. Cells were injected with 5-15 ng of cRNA encoding NR1-1a in combination with a 2-3 fold greater amount of either NR2B cRNA. Injected oocytes were maintained at 17° C. in Barths solution containing penicillin (10 U/ml) and streptomycin (10 μg/ml) for 2-6 days, after which recordings were made at room temperature from oocytes continuously perfused in a standard frog Ringers solution. This solution was composed of (in mM): 90 NaCl, 1.0 KCl, 10 Hepes and 0.5 BaCl2. Recording pipettes were filled with 0.3M KCl. Saturating concentrations of glutamate (20-50 μM) and glycine (20 μM) were used to activate the receptor. Drugs were prepared daily from frozen stock solutions in DMSO. Glutamate/glycine-activated currents were typically elicited from a holding potential of −20 to −40 mV. Current signals were digitized and analyzed using custom acquisition software. To study the effects of pH, oocytes were perfused with Ringer's solution at the desired pH until a stable baseline had been reached before subsequent agonist application.
Oocytes in which the glutamate/glycine current was not stable or in which the baseline holding current drifted were discarded. Inhibition of the glutamate/glycine current by drugs was examined by applying 1-4 different concentrations of the antagonist to each oocyte. […] On average recordings were made from 14 oocytes per condition.

[1] = Table D, pH 6.9, NR1-1a/NR2B in Xenopus oocytes, read-out: IC50 at pH 6.9
[2] = Table A, pH 6.9, NR1-1a/NR2B in Xenopus oocytes, read-out: IC50 at pH 6.9
[3] = Table B, pH 6.9, NR1-1a/NR2B in Xenopus oocytes, read-out: IC50 at pH 6.9
[4] = 30 mg/kg, 15 min from drug injection to electroshock
[5] = 30 mg/kg, 60 min from drug injection to electroshock
[6] = 30 mg/kg, 30 min from drug injection to electroshock

In the case of `CN(CCc1ccc(Cl)c(Cl)c1)CC(O)COc1ccc(NS(C)(=O)=O)cc1.Cl` (racemic) [Compound 93, (R,S) 1-(4-methanesulfonamidophenoxy)-3-(N-methyl-3,4-dichlorophenylethylamine)-2-propanol hydrochloride, reference compound], the Anticonvulsive effects (Male Sprague-Dawley rats) was “Anticonvulsive effects”, the “THE in drug (% control)” value (Male Sprague-Dawley rats; 10 mg/kg, 15 min from drug injection to electroshock) was 78.2 ± 4.5 % control and the “THE in drug (% control)” value (Male Sprague-Dawley rats; 10 mg/kg, 30 min from drug injection to electroshock) was 58.5 ± 11.3 % control. The “THE in drug (% control)” value (Male Sprague-Dawley rats; 10 mg/kg, 60 min from drug injection to electroshock) was 62.4 ± 3.9 % control and the “THE in drug (% control)” value (Male Sprague-Dawley rats; 30 mg/kg, 240 min from drug injection to electroshock) was 96.2 ± 1.7 % control.

In the case of `OC(CNCCc1ccc(Cl)c(Cl)c1)COc1ccc(OC(F)(F)F)cc1` (racemic) [Compound 93-16], the “Fold increase in potency between pH 7.6 and 6.9” value (shortened to “Fold increase”) (NR1-1a/NR2B receptors; Table D) was 4.82 and the pIC50 (NR1-1a/NR2B receptors; [1]) was 4.95.

`CN(CCc1ccc(Cl)c(Cl)c1)C[C@H](O)COc1ccc(NS(C)(=O)=O)cc1` [93-2 (S), (S)-1-(4-Methanesulphonamidephenoxy)3-(N-methyl-3,4-dichloro-phenylethylamino)-2-propanol] was tested, and the “Fold increase” value (NR1-1a/NR2B receptors; Table A) was 5.87, the pIC50 (NR1-1a/NR2B receptors; [2]) was 7.20 and the “Fold increase” value (NR1-1a/NR2B receptors; Table C) was 5.87.

In the case of `CS(=O)(=O)Nc1ccc(OC[C@@H](O)CNCCc2ccc(Cl)c(Cl)c2)cc1.Cl` [93-4 (S), (S)-1-(4-methanesulfonamideophenoxy)-3-(3,4-dichlorophenylethylamine)-2-propanol hydrochloride], the “Fold increase” value (NR1-1a/NR2B receptors; Table B) was 3.54, the pIC50 (NR1-1a/NR2B receptors; [3]) was 7.59 and the “Fold increase” value (NR1-1a/NR2B receptors; Table C) was 3.54. The “Fold increase” value (NR1-1a/NR2B receptors; Table D) was 3.54, the pIC50 (NR1-1a/NR2B receptors; [1]) was 7.59 and the Anticonvulsive effects (Male Sprague-Dawley rats) was “Anticonvulsive effects”. The “THE in drug (% control)” value (Male Sprague-Dawley rats; 3 mg/kg, 15 min from drug injection to electroshock) was 91.1 ± 2.7 % control, the “THE in drug (% control)” value (Male Sprague-Dawley rats; 3 mg/kg, 60 min from drug injection to electroshock) was 109 ± 11.5 % control and the “THE in drug (% control)” value (Male Sprague-Dawley rats; [4]) was 66.6 ± 12.5 % control. The “THE in drug (% control)” value (Male Sprague-Dawley rats; [5]) was 30.8 ± 12.1 % control.

In the case of `CCN(CCc1ccc(Cl)c(Cl)c1)C[C@H](O)COc1ccc(NS(C)(=O)=O)cc1` [93-5 (S), (S)-1-(4-Methanesulphonamidephenoxy)-3-(N-ethyl-3,4-dichloro-phenylethylamino)-2-propanol], the “Fold increase” value (NR1-1a/NR2B receptors; Table A) was 8.00, the pIC50 (NR1-1a/NR2B receptors; [2]) was 7.70 and the “Fold increase” value (NR1-1a/NR2B receptors; Table C) was 8.00.

With `CCCN(CCc1ccc(Cl)c(Cl)c1)C[C@H](O)COc1ccc(NS(C)(=O)=O)cc1` [93-6 (S), (S)-1-(4-Methanesulphonamidephenoxy)3-(N-propyl-3,4-dichloro-phenylethylamino)-2-propanol] the “Fold increase” value (NR1-1a/NR2B receptors; Table A) was 6.54, the pIC50 (NR1-1a/NR2B receptors; [2]) was 6.95 and the “Fold increase” value (NR1-1a/NR2B receptors; Table C) was 6.54.

`CN(c1ccc(OC[C@@H](O)CNCCc2ccc(Cl)c(Cl)c2)cc1)S(C)(=O)=O` [93-7 (S), (S)-1-(4-N-methyl-methanesulphonamidephenoxy)-3-(3,4-dichloro-phenylethylamino)-2-propanol] was tested, and the pIC50 (NR1-1a/NR2B receptors) was 5.63 and the “Fold increase” value (NR1-1a/NR2B receptors; Table D) was 5.51.

In the case of `CS(=O)(=O)Nc1ccc(OC[C@@H](O)CN(CCO)CCc2ccc(Cl)c(Cl)c2)cc1` [93-8 (S), (S)-1-(4-methanesulphonamidephenoxy)-e-(N-(2-hydroxyethyl)-3,4-dichlorophenylethylamino)-2-propanol], the “Fold increase” value (NR1-1a/NR2B receptors; Table A) was 11.3, the pIC50 (NR1-1a/NR2B receptors; [2]) was 7.54 and the “Fold increase” value (NR1-1a/NR2B receptors; Table C) was 11.3. For the same molecule, the Anticonvulsive effects (Male Sprague-Dawley rats) was “Anticonvulsive effects”, the “THE in drug (% control)” value (Male Sprague-Dawley rats; [4]) was 91.9 ± 0.4 % control and the “THE in drug (% control)” value (Male Sprague-Dawley rats; [6]) was 85.7 ± 2.8 % control. The “THE in drug (% control)” value (Male Sprague-Dawley rats; [5]) was 59.3 ± 4.1 % control.

For `CS(=O)(=O)Nc1cccc(OC[C@@H](O)CNCCc2ccc(Cl)c(Cl)c2)c1` [93-9 (S), (S)-1-(3-Methanesulphonamidephenoxy)3-(3,4-dichlorophenylcthyl-amino)-2-propanol], the pIC50 (NR1-1a/NR2B receptors) was 6.68 and the “Fold increase” value (NR1-1a/NR2B receptors; Table D) was 8.19.

`O=[N+]([O-])c1ccc(OC[C@@H](O)CNCCc2ccc(Cl)c(Cl)c2)cc1` [93-10 (S), (S)-1-(4-Nitrophenoxy)3-(3,4-dichlorophenylethylamino)-2propanol] was tested, and the pIC50 (NR1-1a/NR2B receptors) was 4.92 and the “Fold increase” value (NR1-1a/NR2B receptors; Table D) was 1.60.

In the case of `CS(=O)(=O)Nc1ccc(OCC2CN(CCc3ccc(Cl)c(Cl)c3)C(=O)O2)cc1` [93-27 (S), N-(3,4-dichlorophenyl)ethyl-5-(4-methanesulphonamidophenoxy) methyl-oxazolidine-2-one], the “Fold increase” value (NR1-1a/NR2B receptors; Table B) was 0.95, the pIC50 (NR1-1a/NR2B receptors; [3]) was 6.47 and the “Fold increase” value (NR1-1a/NR2B receptors; Table C) was 0.954. The “THE in drug (% control)” value (Male Sprague-Dawley rats; [4]) was 97.0 ± 0.6 % control, the “THE in drug (% control)” value (Male Sprague-Dawley rats; [6]) was 95.6 ± 1.3 % control and the “THE in drug (% control)” value (Male Sprague-Dawley rats; [5]) was 89.7 ± 0.8 % control.

For `CC(=O)OC(COc1ccc(NS(C)(=O)=O)cc1)CN(CCc1ccc(Cl)c(Cl)c1)C(C)=O` [93-28 (S), 1-(4-Methanesulphonamidophenoxy)-3-(N-acetyl-3,4-dichloro-phenylethylamino)-2-propyl acetate], the “Fold increase” value (NR1-1a/NR2B receptors; Table A) was 11.1 and the pIC50 (NR1-1a/NR2B receptors; [2]) was 5.79.

With `O=S(=O)(Nc1ccc(OCC(O)CNCCc2ccc(Cl)c(Cl)c2)cc1)c1ccccc1` [93-29 (S), 1-(4-benzenesulphonamidophenoxy)-3-(3,4-dichloro-phenylethyl-amino)-2-propanol] the pIC50 (NR1-1a/NR2B receptors) was 5.94, the “Fold increase” value (NR1-1a/NR2B receptors; Table A) was 18.0 and the “Fold increase” value (NR1-1a/NR2B receptors; Table D) was 18.02.

In the case of `CS(=O)(=O)Nc1ccc(OC[C@@H](O)CN(CCc2ccc(Cl)c(Cl)c2)Cc2ccccc2)cc1` [93-30 (S), (S)-1-(4-Methanesulphonamidephenoxy)-3-(N-benzyl-3,4-dichloro-phenylethylamino)-2-propanol], the “Fold increase” value (NR1-1a/NR2B receptors; Table A) was 16.8, the pIC50 (NR1-1a/NR2B receptors; [2]) was 7.15 and the “Fold increase” value (NR1-1a/NR2B receptors; Table C) was 16.8.

In the case of `CCCCN(CCc1ccc(Cl)c(Cl)c1)C[C@H](O)COc1ccc(NS(C)(=O)=O)cc1` [93-31 (S), (S)-1-(4-Methanesulphonamidephenoxy)-3-(N-butyl-3,4-dichloro-phenylethylamino)-2-propanol], the “Fold increase” value (NR1-1a/NR2B receptors; Table A) was 51.2, the pIC50 (NR1-1a/NR2B receptors; [2]) was 7.24 and the “Fold increase” value (NR1-1a/NR2B receptors; Table C) was 51.2.

`CS(=O)(=O)Nc1ccccc1OC[C@@H](O)CNCCc1ccc(Cl)c(Cl)c1` [93-32 (S), 1-(2-Methanesulphonamidephenoxy)-3-(3,4-dichlorophenylethylamino)-2-propanol] showed a pIC50 (NR1-1a/NR2B receptors) of 4.75.

With `CS(=O)(=O)Nc1ccc(OC[C@@H](O)CN(CCc2ccc(Cl)c(Cl)c2)Cc2ccc(F)cc2)cc1` [93-33 (S), (S)-1-(4-Methanesulphonamidephenoxy)-3-(N-(4-fluorobenzyl)-3,4-dichlorophenylethylamino)-2-propanol] the “Fold increase” value (NR1-1a/NR2B receptors; Table B) was 0.810 and the pIC50 (NR1-1a/NR2B receptors; [3]) was 6.28.

In the case of `CS(=O)(=O)Nc1ccc(OC[C@@H](O)CN(CCc2ccc(Cl)c(Cl)c2)Cc2cccc(F)c2)cc1` [93-34 (S), (S)-1-(4-Methanesulphonamidephenoxy)-3-(N-(3-fluorobenzyl)-3,4-dichlorophenylethylamino)-2-propanol], the “Fold increase” value (NR1-1a/NR2B receptors; Table B) was 4.62 and the pIC50 (NR1-1a/NR2B receptors; [3]) was 6.68.

In the case of `CS(=O)(=O)Nc1ccc(OC[C@@H](O)CN(CCc2ccc(Cl)c(Cl)c2)Cc2ccccc2F)cc1` [93-35 (S), (S)-1-(4-Methanesulphonamidephenoxy)-3-(N-(2-fluorobenzyl)-3,4-dichlorophenylethylamino)-2-propanol], the “Fold increase” value (NR1-1a/NR2B receptors; Table B) was 3.60 and the pIC50 (NR1-1a/NR2B receptors; [3]) was 7.32.

In the case of `NC(=O)N1c2ccccc2C=Cc2ccccc21` [Carbamazepine, reference compound], the “THE in drug (% control)” value (Male Sprague-Dawley rats; 40 mg/kg, 30 min from drug injection to electroshock) was 0.0 ± 0.0 % control.

For `C[C@@H](CN1CCC(Cc2ccccc2)CC1)[C@@H](O)c1ccc(O)cc1` [Ro256981, reference compound], the “Fold increase” value (NR1-1a/NR2B receptors; Table B) was 0.444 and the pIC50 (NR1-1a/NR2B receptors; [3]) was 7.74.
